# Measured values published in the Kinase Knowledgebase extract (Sharma et al. 2016).
# Target: EGFR (UniProt P00533)
# Assay: Inhibition of EGFR Kinase Activity
# EGFR, sequence (P00533 whole entry, looked up): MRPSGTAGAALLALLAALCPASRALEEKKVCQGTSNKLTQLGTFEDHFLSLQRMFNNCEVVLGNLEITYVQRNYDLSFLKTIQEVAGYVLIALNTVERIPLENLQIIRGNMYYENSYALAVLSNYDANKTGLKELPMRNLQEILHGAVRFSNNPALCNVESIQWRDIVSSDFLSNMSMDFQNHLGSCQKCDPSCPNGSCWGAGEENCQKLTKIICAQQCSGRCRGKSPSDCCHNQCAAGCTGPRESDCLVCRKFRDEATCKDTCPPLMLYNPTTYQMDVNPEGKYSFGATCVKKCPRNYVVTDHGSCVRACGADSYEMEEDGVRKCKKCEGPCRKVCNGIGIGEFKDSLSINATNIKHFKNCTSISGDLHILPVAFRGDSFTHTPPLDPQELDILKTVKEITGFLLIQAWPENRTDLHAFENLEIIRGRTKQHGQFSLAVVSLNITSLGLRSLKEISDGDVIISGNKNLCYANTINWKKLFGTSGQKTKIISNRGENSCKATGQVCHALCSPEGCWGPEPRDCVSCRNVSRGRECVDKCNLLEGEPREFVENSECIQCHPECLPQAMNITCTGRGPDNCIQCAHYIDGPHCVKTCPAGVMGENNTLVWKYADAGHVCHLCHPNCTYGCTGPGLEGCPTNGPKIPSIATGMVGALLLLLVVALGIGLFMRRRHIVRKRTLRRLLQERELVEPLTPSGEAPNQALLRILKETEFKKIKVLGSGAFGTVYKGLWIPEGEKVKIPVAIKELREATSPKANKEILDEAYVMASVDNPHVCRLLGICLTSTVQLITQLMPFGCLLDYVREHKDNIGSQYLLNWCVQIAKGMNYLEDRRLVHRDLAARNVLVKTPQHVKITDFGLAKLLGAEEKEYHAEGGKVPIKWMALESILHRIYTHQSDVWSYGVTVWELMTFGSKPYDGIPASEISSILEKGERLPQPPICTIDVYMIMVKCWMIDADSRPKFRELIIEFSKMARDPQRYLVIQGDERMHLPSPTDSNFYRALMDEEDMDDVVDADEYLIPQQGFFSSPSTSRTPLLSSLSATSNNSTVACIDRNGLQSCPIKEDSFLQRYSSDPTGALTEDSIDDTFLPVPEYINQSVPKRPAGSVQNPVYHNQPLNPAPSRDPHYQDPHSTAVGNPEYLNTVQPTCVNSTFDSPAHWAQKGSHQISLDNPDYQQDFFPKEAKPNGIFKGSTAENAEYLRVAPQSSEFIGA
row,IC50 [µM],SMILES
1,< 50,C=CC(=O)Nc1cccc(Nc2ncnc(N(CC)C3CC3c3ccc(Cl)cc3)n2)c1 (stereo unspecified)
2,< 50,CC#CC(=O)Nc1cccc(Nc2ncnc(N(C)c3ccc(OC)c(OCCOC)c3)n2)c1
3,< 50,C=CC(=O)Nc1cccc(Nc2ncnc(N(CC)c3cccc(C)c3)n2)c1
4,< 50,C=CC(=O)Nc1ccc(Nc2ncnc(Nc3cccc(S(=O)(=O)c4ccc([N+](=O)[O-])cc4)c3)n2)cc1
5,< 50,C=CC(=O)Nc1ccc(Nc2ncnc(NN3CCCc4cc(C)ccc43)n2)cc1
6,< 50,CC#CC(=O)Nc1cccc(Nc2ncnc(N(CC)c3cc(Cl)ccc3C)n2)c1
7,< 50,C=CC(=O)Nc1cccc(Nc2ncnc(Nc3cccc(C)c3)n2)c1
8,< 50,C=CC(=O)Nc1ccc(Nc2ncnc(Nc3ccc(OCCO)cc3)n2)cc1
9,< 50,C=CC(=O)Nc1ccc(Nc2ncnc(N(CC)c3cc(OC)c(OC)c(OCCN4CCOCC4)c3)n2)cc1
10,< 50,C=CC(=O)Nc1ccc(Nc2ncnc(Nc3cccc(CC(=O)OC)c3)n2)cc1
11,< 50,CCN(c1ccc2NN(=Cc2c1)Cc3ccccn3)c4ncnc(Nc5cccc(NC(=O)C=C)c5)n4
12,< 50,CC#CC(=O)Nc1cccc(Nc2ncnc(N(C)c3cccc4ccccc34)n2)c1
13,< 50,C=CC(=O)Nc1cccc(Nc2ncnc(N(CC)C3CC3c3ccccc3)n2)c1 (stereo unspecified)
14,< 50,C=CC(=O)Nc1cccc(Nc2ncnc(Nc3ccc(OC)c(OCCOC)c3)n2)c1
15,< 50,C=CC(=O)N(OCCCN1CCOCC1)c1cccc(Nc2ncnc(NN3CCCc4ccc(Cl)cc43)n2)c1
16,< 50,C=CCN(c1cccc(C)c1)c1ncnc(Nc2cccc(NC(=O)C#CC)c2)n1
17,< 50,CC#CC(=O)Nc1cccc(Nc2ncnc(N(C)c3cccc(Cl)c3)n2)c1
18,< 50,CC#CC(=O)Nc1cc(Nc2ncnc(Nc3ccc(OCc4ccccc4)c(Cl)c3)n2)ccc1OCCCN1CCOCC1
19,< 50,CC#CC(=O)Nc1cccc(Nc2ncnc(N(C)c3ccc(OCc4ccccc4)cc3)n2)c1
20,< 50,CC#CC(=O)Nc1cc(Nc2ncnc(Nc3ccc(OCc4ccccc4)c(Cl)c3)n2)ccc1OCCCC1CCN(C)CC1
21,< 50,C=CCN(c1ccc(OC)c(OC)c1)c1ncnc(Nc2ccc(NC(=O)C=C)cc2)n1

row,IC50 [µM],SMILES
1,< 50,C=CC(=O)N(CCCN1CCOCC1)c1cccc(Nc2ncnc(Nc3ccc(C(=O)OC)cc3)n2)c1
2,< 50,C=CC(=O)Nc1cccc(Nc2ncnc(Nc3cc(OC)c(OC)c(OC)c3)n2)c1
3,< 50,C=CC(=O)Nc1cccc(Nc2ncnc(Nc3ccc(OCCC)c(OCCC)c3)n2)c1
4,< 50,C=CC(=O)Nc1ccc(Nc2ncnc(N(C)c3ccc4c(cnn4Cc4ccccc4)c3)n2)cc1
5,< 50,C=CCN(c1ncnc(Nc2cccc(NC(=O)C#CC)c2)n1)C1CC1c1ccc(Cl)cc1 (stereo unspecified)
6,< 50,C=CC(=O)N(CCCN1CCOCC1)c1cccc(Nc2ncnc(Nc3ccc(OCCO)cc3)n2)c1
7,< 50,C=CC(=O)Nc1ccc(Nc2ncnc(N(C)c3cccc(C)c3)n2)cc1
8,< 50,C=CC(=O)Nc1ccc(Nc2ncnc(N(C)c3ccc(C(=O)OC)cc3)n2)cc1
9,< 50,CC#CC(=O)Nc1cc(Nc2ncnc(Nc3ccc4c(cnn4Cc4ccccc4)c3)n2)ccc1OC
10,< 50,C=CC(=O)Nc1ccc(Nc2ncnc(N(CC)c3cccc(S(=O)(=O)c4ccc([N+](=O)[O-])cc4)c3)n2)cc1
11,< 50,C=CC(=O)Nc1cccc(Nc2ncnc(N(C)c3ccc(OCc4ccccc4)c(Cl)c3)n2)c1
12,< 50,C=CCN(c1ccc(OCCO)cc1)c1ncnc(Nc2cccc(NC(=O)C=C)c2)n1
13,< 50,C=CC(=O)Nc1ccc(Nc2ncnc(N(C)c3ccc4c(cnn4Cc4ccccc4)c3)n2)cc1OC
14,< 50,C=CC(=O)Nc1ccc(Nc2ncnc(N(CC)c3cccc(C(N)=O)c3)n2)cc1
15,< 50,C=CC(=O)Nc1cccc(Nc2ncnc(N(C)c3ccc(OCCOC)c(OC)c3)n2)c1
16,< 50,C=CC(=O)Nc1ccc(Nc2ncnc(N(C)c3ccc(OCC)c(OCC)c3)n2)cc1
17,< 50,CC#CC(=O)Nc1cccc(Nc2ncnc(Nc3cccc(Cl)c3)n2)c1
18,< 50,C=CCN(c1ccc(OC)c(OCCOC)c1)c1ncnc(Nc2cccc(NC(=O)C=C)c2)n1
19,< 50,C=CC(=O)Nc1ccc(Nc2ncnc(Nc3ccc(OCc4ccccc4)cc3)n2)cc1
20,< 50,C=CCN(c1ncnc(Nc2ccc(NC(=O)C=C)cc2)n1)n1c(=O)n(C(=O)C(C)(C)C)c2ccccc21
